Experimental data from ChEMBL document CHEMBL3272062, “Difference in antimalarial activity between certain amino alcohol diastereomers” (J Med Chem, 1976).
The source made the active and inactive calls. The calls are words filed in the database; no cut-off is given here.

Tests used:
Plasmodium berghei [1] = assay: Antimalarial activity against Plasmodium berghei infected in mouse assessed as cure rate at 640 mg/kg, sc measured on day 60 post-infection; type: functional, organism-based; design: dose 640 mg/kg
Plasmodium berghei [2] = assay: Antimalarial activity against Plasmodium berghei infected in mouse assessed as increase in mean survival time at 160 mg/kg, sc; type: functional; settings: route subcutaneous
Plasmodium berghei [3] = assay: Antimalarial activity against Plasmodium berghei infected in mouse assessed as increase in mean survival time at 80 mg/kg, sc; type: functional; settings: route subcutaneous
Plasmodium berghei [4] = assay: Antimalarial activity against Plasmodium berghei infected in mouse assessed as increase in mean survival time at 40 mg/kg, sc; type: functional; settings: route subcutaneous
Plasmodium berghei [5] = assay: Antimalarial activity against Plasmodium berghei infected in mouse assessed as increase in mean survival time at 320 mg/kg, sc; type: functional; settings: route subcutaneous
Plasmodium berghei [6] = assay: Antimalarial activity against Plasmodium berghei infected in sc dosed mouse assessed as increase in mean survival time; type: functional, organism-based
Mus musculus = assay: Toxicity in sc dosed mouse measured 2 to 5 days post-infection; type: organism-based; settings: in vivo

## OC(c1cc(C(F)(F)F)nc2c(C(F)(F)F)cccc12)C1CCCNC1 (single isomer, unassigned; diastereomer 1)
Plasmodium berghei [1]
  Activity: Active

## O=C(O)/C=C/C(=O)O.OC(c1cc(C(F)(F)F)nc2c(C(F)(F)F)cccc12)C1CCCNC1 (single isomer, unassigned; diastereomer 1)
Plasmodium berghei [2]
  MST: 11.2 days
Plasmodium berghei [3]
  MST: 10.1 days
Plasmodium berghei [4]
  MST: 5.9 days
Plasmodium berghei [5]
  MST: 15.2 days

## OC(c1cc(C(F)(F)F)nc2c(C(F)(F)F)cccc12)C1CCCNC1 (single isomer, unassigned; diastereomer 2)
Plasmodium berghei [1]
  Activity: inactive

## CN1CCCCC1C(O)c1cc2ccccc2c2cc(Br)ccc12.Cl (stereo not drawn)
Plasmodium berghei [6]
  Activity: Active
Mus musculus
  Activity: Toxic
